Assay results reported in the NIST ThermoML archive (doi:10.1016/j.fluid.2014.01.034).

How the values were obtained:
[1] = Boiling temperature at pressure P; settings: Liquid, Ebulliometric method (Recirculating still)
[2] = Molar enthalpy of transition or fusion; settings: Crystal; DSC
[3] = for mass density: 348.15 K, 101.33 kPa, Liquid, Vibrating tube method; for Normal melting temperature: Crystal, DTA

O=[N+]([O-])c1cccc(Cl)c1Cl [1,2-dichloro-3-nitrobenzene]
[1]
Settings	Boiling temperature at pressure P [°C]
3.26 kPa	148.61
3.72 kPa	151.73
4.07 kPa	153.89
5.48 kPa	161.26
6.14 kPa	164.16
7.17 kPa	168.22
8.84 kPa	174
10.02 kPa	177.31
11.41 kPa	180.98
12.61 kPa	183.86
13.71 kPa	186.30
15.55 kPa	190.1
16.52 kPa	191.88
18.33 kPa	195.16
20.52 kPa	198.69
21.66 kPa	200.30
22.76 kPa	201.89
25.1 kPa	205.06
27.58 kPa	208.17
30.63 kPa	211.69
35.11 kPa	216.38
40.91 kPa	221.76
46.97 kPa	226.77
50.86 kPa	229.71
54.85 kPa	232.54
57.81 kPa	234.64
61.11 kPa	236.77
63.43 kPa	238.11
65.25 kPa	239.22
70.98 kPa	242.53
76.92 kPa	245.8
80.62 kPa	247.66
85.76 kPa	250.19
91.3 kPa	252.79
96.08 kPa	254.94
101.3 kPa	257.18

Settings	Molar enthalpy of transition or fusion [kcal/mol]	Normal melting temperature [°C]	mass density [kg/m3]
[2]	5.33	–	–
[3]	–	61.8	1533

O=[N+]([O-])c1ccc(Cl)c(Cl)c1 [3,4-dichloro-1-nitrobenzene]
[1]
Settings	Boiling temperature at pressure P [°C]
3.01 kPa	143.59
4.22 kPa	151.87
4.98 kPa	156.10
5.82 kPa	160.09
6.97 kPa	164.90
7.4 kPa	166.54
9.08 kPa	172.28
9.77 kPa	174.29
11.5 kPa	178.94
12.15 kPa	180.66
13.41 kPa	183.46
15.01 kPa	186.98
16.24 kPa	189.28
17.48 kPa	191.66
19.68 kPa	195.37
21.06 kPa	197.53
24.35 kPa	202.28
25.56 kPa	203.78
26.76 kPa	205.32
31.46 kPa	210.79
34.27 kPa	213.8
36.87 kPa	216.33
41.72 kPa	220.8
45.99 kPa	224.32
51.49 kPa	228.52
55.34 kPa	231.23
61.61 kPa	235.37
65.28 kPa	237.58
70.2 kPa	240.51
74.34 kPa	242.70
79.67 kPa	245.50
83.95 kPa	247.64
89.76 kPa	250.37
94.77 kPa	252.61
98.14 kPa	254.08
101.3 kPa	255.44

Settings	Molar enthalpy of transition or fusion [kcal/mol]	Normal melting temperature [°C]	mass density [kg/m3]
[2]	4.24	–	–
[3]	–	42.2	1533
